Reference: article PMC6931124, “NPY1R-targeted peptide-mediated delivery of a dual PPARα/γ agonist to adipocytes enhances adipogenesis and prevents diabetes progression” (Molecular Metabolism, 2019)
“Also recorded” adds a separate entry of the source.

Assays:
[1] = Body weight change in db/db mice; format: in vivo; conditions: 2.5 μM/kg/day, 8 days, tesa oral, peptides i.p., n = 5
Protocol: All of the experiments were performed according to the animal ethical laws of the state Saxony, Germany, and were approved by the local animal ethics review board (Landesdirektion Sachsen, Leipzig, Germany). Female db/db mice 12–15 weeks of age were purchased from Taconic (Denmark) and housed in groups of 5 in temperature- and humidity-controlled facilities in a 12 h:12 h light–dark cycle and had free access to tap water and food (regular chow, Sniff, Soest, Germany). Three out of seven groups served as controls (N = 15, see Table 1). The 5 db/db mice were untreated and 10 db/db mice were vehicle treated either orally or intraperitoneally (i.p.). […]
All of the mice were monitored for 9 days during the treatment period. Body weight, food intake, and water uptake were recorded daily and body composition (lean body mass and whole body fat mass) was recorded at the beginning, middle, and end of the study in the conscious mice using an EchoMRI system (Echo Medical Systems, Houston, TX, USA). At the beginning and end of the treatment period, the HbA1c levels were determined from 5 μl of whole venous blood samples using an automated chemical analyzer at the Institute of Laboratory Medicine and Clinical Chemistry and beta-ketone using an automated glucose monitor (FreeStyle Precision H, Abbott GmbH, Ludwigshafen, Germany). […]

[2] = tested on: PPARγ; assay: PPAR reporter gene assay (luciferase); format: cell-based
Protocol: HEK293 cells stably expressing NPY1R C-terminally fused to eYFP were seeded into white 96-well plates, grown to 70–80% confluence, and transfected using Lipofectamine 2000 transfection reagent according to the manufacturer's protocol. For luciferase reporter gene assays, 250 ng reporter plasmid, positive control plasmid or negative control plasmid (Cignal PPAR Reporter (luc) Kit), 250 ng PPARγ expression vector, and 250 ng RXRα expression vector were applied in addition to 0.75 μl of Lipofectamine 2000 transfection reagent per well. For selectivity assays, HEK293 cells without stable NPY1R-eYFP transfection and HEK293 NPY1R-eYFP cells without PPARγ transfection were used. After 24 h of transfection, the cells were treated with tesa or peptides for an additional 24 h. […] Luciferase assays were performed using the Dual-Luciferase System Kit according to the manufacturer's instructions. The relative firefly luciferase activity was normalized by the corresponding Renilla luciferase activity, the luciferase activity of the cells transfected with the negative control plasmid, and the DMSO vehicle control. The assays were performed in at least three independent experiments.
Furthermore, plasmids coding for PPARγ and RXRα were transfected. Because PPARγ binds as a heterodimer with RXRα to PPRE-responsive elements, RXRα is needed for PPARγ activity.
Figure 5 Transcriptional activity of the PPAR reporter gene. […] The depicted values represent mean ± SEM from n ≥ 3 independent experiments. All measurements were normalized to the transcriptional activity of DMSO-treated cells expressing all factors (set to […]). Statistical significance was determined by one-way analysis of variance (ANOVA) followed by Dunnett's multiple comparison test, *≤0.05, **p ≤ 0.01, ***p ≤ 0.001.

[3] = tested on: SGBS preadipocytes; assay: AdipoRed adipogenesis assay, SGBS; format: cell-based, human; conditions: 24 h; tesa 10/25/100 μM, tesa-NPY 100 μM; AdipoRed fluorescence, DMSO = 100%; n = 3 in quadruplicate
Protocol: 3T3-L1 or SGBS cells were seeded into 96-well plates and grown to complete confluency (set as day 0). On day 2 of confluence, the 3T3-L1 cells were differentiated by DMEM High Glucose Medium supplemented with 10% (v/v) not-heat inactivated FCS, 0.5 mM IBMX, 167 nM human insulin, and 1 μM dexamethasone (differentiation medium). On day 4, the medium was replaced by insulin medium (DMEM High Glucose Medium, 10% not-heat inactivated FCS, and 167 nM human insulin). On day 6, the medium was changed to standard culture medium and changed every other day until full differentiation was achieved (on day 8). The SGBS cells were differentiated as previously described. […] On day 4, the medium was replaced by 3FC medium (DMEM High Glucose Medium and Hams F12 (1:1 (v/v))) without FCS and supplemented with 0.01 mg human apo-transferrin, 20 nM human insulin, triiodo-L-thyronine, and 100 nM hydrocortisone. The medium was changed every second day until full differentiation was achieved (day 10). […]
(A, B) Cells were differentiated and stimulated according to the protocol depicted for 3T3-L1 (A) and for SGBS (B). […] (E,F) Expression of adipocyte-enriched genes in 3T3-L1 (E) or SGBS (F) adipocytes analyzed by qPCR. […] Statistical significances refer to DMSO-treated cells and were determined by one-way analysis of variance (ANOVA) followed by Dunnett's multiple comparison test, *≤0.05, **p ≤ 0.01, ***p ≤ 0.001.

[4] = tested on: subcutaneous and epigonadal adipose tissue; assay: Adipose tissue histology and adipocyte size; format: in vivo; conditions: db/db mice, 2.5 μmol/kg/day, 8 days; H&E, epigonadal and subcutaneous AT
Protocol: All of the experiments were performed according to the animal ethical laws of the state Saxony, Germany, and were approved by the local animal ethics review board (Landesdirektion Sachsen, Leipzig, Germany). Female db/db mice 12–15 weeks of age were purchased from Taconic (Denmark) and housed in groups of 5 in temperature- and humidity-controlled facilities in a 12 h:12 h light–dark cycle and had free access to tap water and food (regular chow, Sniff, Soest, Germany). Three out of seven groups served as controls (N = 15, see Table 1). The 5 db/db mice were untreated and 10 db/db mice were vehicle treated either orally or intraperitoneally (i.p.). One additional group (n = 5) of lean C57BL/6NTac mice was used as a metabolically healthy control group. Groups 1 to 5 were treated daily with 2.5 μmol/kg body weight tesa, peptides or vehicle (1% (v/v) DMSO in PBS) either by gavage or intraperitoneal injection for 8 days according to Table 1. The control mice were gavaged with an equal volume of vehicle.

[5] = set-up: method as in Ljung et al. [74]; conditions: ref Ljung et al. [74]; cited from earlier work
Source text: In the present study, we used db/db mice to evaluate the anti-diabetic potency of the peptide conjugate, as these mice are known to develop severe insulin resistance and hypertriglyceridemia.

CCO[C@@H](Cc1ccc(OCCc2ccc(OS(C)(=O)=O)cc2)cc1)C(=O)O [tesa, tesaglitazar]
body weight change, in words [1]: did not change significantly; also recorded: can prevent this weight loss
transcriptional activity in absence of PPARγ ([2]; 100 μM, HEK293 NPY1R without PPARγ transfection): complete loss of transcriptional activity
transcriptional activity in absence of NPY1R ([2]; 100 μM, HEK293 without NPY1R, with PPARγ): not influenced by NPY1R expression
concentration-response curve / potency in reporter assay ([2]; HEK293 NPY1R, PPARγ, RXRα, 24 h): demonstrated a saturation curve
relative transcriptional activity (luciferase) ([2]; HEK293 stably expressing NPY1R, transfected with PPAR reporter, PPARγ, RXRα, 24 h treatment, n ≥ 3): Concentration-dependent luciferase activity was detected
adipogenesis (triglyceride content), SGBS [3]: enhanced adipogenesis in both cell lines
adipocyte size [4]: trend toward smaller adipocyte size
weight gain in treated animals [5]: does not lead to weight gain in treated animals
